Assay results: patent US4656184A, “2-(N-substituted hydrazone), thiazoles useful as anti-inflammatories” (priority 1982, dated 1987)
Where two headings read alike, the source gives them in different places.

Key:
15 HETE = experiment: Metabolism of 14C-arachidonate in rabbit peritoneal PMNs: 15 HETE; assay type: cell-based; conditions: 15 HETE formation, n.i. = no inhibition
Method: (§1) Preparation of a suspension of rabbit PMNs
(§2) The peritoneal leukocytes of rabbits are obtained and prepared according to the technique described by P. Borgeat and B. Samuelson (J. Biol. Chem. 254, n° 8, p. 2643, 1979).
(§3) Metabolism of ^14 C-Arachidonate
(§4) The incubation and extraction methods are those described by J. Y. Vanderhoek & co-workers (J. Biol. Chem. […], 21, 10064, 1980).
(§5) The percent inhibition of the 5-lipoxygenase is determined as a function of the concentration of each compound. The concentration of product that inhibits the metabolism by a factor of 50% (IC50) is inferred from those curves.

12-lipoxygenase = biological target: T1, 12-lipoxygenase (Oryctolagus cuniculus, UniProt G1U492); experiment: Inhibition of the metabolism of 14C-arachidonate in the blood platelets of rabbits: 12-lipoxygenase route (12-HETE); assay type: cell-based; conditions: rabbit blood platelets; for IC50 / IC50 in the blood platelets, 12 HETE: 12 HETE, n.i. = no inhibition
T1 construct: metabolism of ^14 C-Arachidonate in the blood platelets of rabbits; endogenous in cells; host or cells: washed rabbit blood platelets (from platelet-rich plasma)
T1 sequence (G1U492 1-663): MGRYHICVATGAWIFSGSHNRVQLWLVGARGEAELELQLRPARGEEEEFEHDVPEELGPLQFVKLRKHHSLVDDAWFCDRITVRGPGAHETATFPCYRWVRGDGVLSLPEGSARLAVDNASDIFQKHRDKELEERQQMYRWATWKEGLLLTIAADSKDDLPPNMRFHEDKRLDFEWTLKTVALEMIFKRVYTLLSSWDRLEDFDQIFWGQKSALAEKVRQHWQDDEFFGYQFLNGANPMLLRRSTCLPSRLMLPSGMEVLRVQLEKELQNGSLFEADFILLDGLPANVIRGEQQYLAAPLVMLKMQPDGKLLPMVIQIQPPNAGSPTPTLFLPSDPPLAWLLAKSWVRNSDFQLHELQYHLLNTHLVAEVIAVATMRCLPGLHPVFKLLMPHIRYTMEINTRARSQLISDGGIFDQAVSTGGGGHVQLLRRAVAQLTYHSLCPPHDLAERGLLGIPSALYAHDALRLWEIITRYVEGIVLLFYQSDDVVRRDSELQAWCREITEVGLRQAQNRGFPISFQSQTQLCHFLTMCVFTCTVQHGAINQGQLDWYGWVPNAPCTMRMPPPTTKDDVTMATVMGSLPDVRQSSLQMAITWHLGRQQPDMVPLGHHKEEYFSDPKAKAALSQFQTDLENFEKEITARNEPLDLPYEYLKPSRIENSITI
Method: (§6) 1.2. Inhibition of the metabolism of
(§7) ^14 C-Arachidonate in the blood platelets of rabbits
(§8) Preparation of a platelet-rich plasma (PRP)
(§9) A 12 ml blood sample is taken, by the intracardiac route, on ACD (anticoagulant consisting of an aqueous solution containing 0.27 g citric acid, 0.5 g disodium citrate and 0.02 g glucose per 20 ml water), at a rate of 1 volume ACD per 6 volumes blood. The blood is centrifuged at 200 g for 10 minutes and the supernatant (PRP) is collected. It is again centrifuged at 1500 g for 15 minutes. The blood-platelet sediment is washed with Buffer I (NaCl: 8 g/l, Tris: 1.21 g/l, KCl: 0.2 g/l, Gelatin: 2.5 g/l; the material is heated at 90° C. to dissolve the gelatin, after which are added glucose: 1 g/l, and N,N'-ethyleneglycol bis(β-aminoethyl ether,)tetraacetic acid or EGTA: 0.075 g/l). The suspension is centrifuged at 1500 g for 10 minutes, and the sediment is taken up into Buffer II (NaCl: 8 g/l, Tris: 1.21 g/l, KCl: 0.2 g/l, CaCl2 : 0.145 g/l, MgCl2 0.2 g/l, gelatin: 2.5 g/l; this material is heated to 90° C., after which glucose (1 g/l) is added, and the pH is adjusted to a value of 7.4 with 0.1 N HCl),
as §3
(§10) The blood-platelet suspension (0.4 ml/tube) is pre-incubated at 37° C. for 15 minutes, either with 10 μl DMSO (reference), or with varying concentrations of products to be treated dissolved in 10 μl DMSO.
(§11) The incubation is effected in the presence of ^14 C-Arachidonate (1 μg, 0.2 μCi) distributed within 0.1 ml Buffer II. It is blocked after 15 minutes by means of 50 μl citric acid and 250 μl saturated NaCl.

[1] = biological target: T2, 5-lipoxygenase of the peritoneal leukocytes of rabbits (PMNs) (Oryctolagus cuniculus, UniProt G1SNX0); experiment: Inhibition of the 5-lipoxygenase of the peritoneal leukocytes of rabbits (PMNs), metabolism of 14C-arachidonate; assay type: cell-based; conditions: rabbit peritoneal PMNs; for IC50 / IC50 in the PMNs, 5 HETE / IC50 in the PMNs, LTB4: n.i. = no inhibition
T2 construct: metabolism of ^14 C-AA in the peritoneal PMNs of rabbits; endogenous in cells; host or cells: rabbit peritoneal polymorphonuclear leukocytes (suspension)
T2 sequence (G1SNX0 1-674): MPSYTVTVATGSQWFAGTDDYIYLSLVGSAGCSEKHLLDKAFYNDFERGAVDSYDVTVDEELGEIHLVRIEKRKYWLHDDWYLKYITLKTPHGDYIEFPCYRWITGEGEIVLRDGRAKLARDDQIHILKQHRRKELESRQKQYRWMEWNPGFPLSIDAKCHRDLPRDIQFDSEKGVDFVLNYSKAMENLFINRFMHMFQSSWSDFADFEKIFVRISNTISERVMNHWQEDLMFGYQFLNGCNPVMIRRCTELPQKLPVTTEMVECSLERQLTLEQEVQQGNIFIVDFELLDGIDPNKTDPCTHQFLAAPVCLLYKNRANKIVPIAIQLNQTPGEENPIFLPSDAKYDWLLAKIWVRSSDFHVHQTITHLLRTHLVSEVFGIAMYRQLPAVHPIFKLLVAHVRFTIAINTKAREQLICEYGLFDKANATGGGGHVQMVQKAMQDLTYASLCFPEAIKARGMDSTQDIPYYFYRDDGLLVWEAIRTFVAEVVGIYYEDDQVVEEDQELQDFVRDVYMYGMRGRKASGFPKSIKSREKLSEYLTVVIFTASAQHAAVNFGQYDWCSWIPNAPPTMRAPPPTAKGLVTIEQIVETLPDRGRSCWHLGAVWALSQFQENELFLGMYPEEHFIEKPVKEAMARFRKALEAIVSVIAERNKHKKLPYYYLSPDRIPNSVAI
Method: 1.1. Inhibition of the 5-lipoxygenase of the peritoneal leukocytes of rabbits (PMNs)
as §1, §2, §3, §4, §5

prostanoids = experiment: Inhibition of the metabolism of 14C-arachidonate in the blood platelets of rabbits: prostanoids route (TxB2, HHT); assay type: cell-based; conditions: rabbit blood platelets
Method: as §6, §7, §8, §9, §3, §10, §11

[2] = Acute toxicity, intraperitoneal route; conditions: mouse, in vivo, ip, in DMSO, 14 days observation, with confidence interval
Method: The test animals used are Swiss mice (NMRI-Han). The average weight of the male animals is 30 g, that of the females is 25 g.
The acute toxicity investigation was conducted by the intraperitoneal route.
The compounds, dissolved in DMSO, are injected under the ventral side of the peritoneum, at increasing dosages.
The reference group is administered DMSO under the same conditions (2.5 ml.kg^-1).
Following Table III gives the values of the 50% lethal dosages together with the […].

edema of the ear in rats = experiment: Cutaneous anti-inflammatory activity: inhibition of the edema of the ear in rats following topic administration; assay type: in vivo; conditions: rat ear edema, topical
Method: Cutaneous anti-inflammatory activity determined by the inhibition of the edema of the ear in rats following topic administration. This activity is determined by means of the method according to G. Tonelli and co-workers (Endocrinology, 1965, 77, 625-634). The effect of various concentrations of each compound is determined in at least seven rats. Inflammation is inhibited by a factor of 50% at the following concentrations: […]

[3] = system: leukocytic infiltration in the aqueous humor; conditions: in vivo; cited from earlier work
[4] = 5 HETE formation, read-out: IC50 in the PMNs, 5 HETE
[5] = LTB4 formation, read-out: IC50 in the PMNs, LTB4
[6] = Oryctolagus cuniculus, Platelet, HHT, read-out: IC50 in the blood platelets, HHT
[7] = Oryctolagus cuniculus, Platelet, thromboxane B2, read-out: IC50 in the blood platelets, T × B2
[8] = HHT, read-out: IC50 in the blood platelets, HHT
[9] = thromboxane B2, read-out: IC50 in the blood platelets, T × B2

SMILES	IC50 (12-lipoxygenase) [µM]	IC50 [1, 4] [µM]	IC50 [1, 5] [µM]	IC50 (prostanoids; [6]) [µM]	IC50 (prostanoids; [7]) [µM]	IC50 (prostanoids; [8]) [µM]	IC50 (prostanoids; [9]) [µM]	also measured
c1ccc2c(c1)CCCC2=NNc1nccs1 [Example 7]	40	6	8	16	10	–	–	IC50 (15 HETE; Oryctolagus cuniculus): 2 µM
CC(=NNc1nccs1)c1cccs1 [Example 3b]	10	10	13	–	–	> 50	10	LD50 at 336 h ([2]; female Swiss mice, read-out: Parenteral LD50, female mice): 155 ± 32 mg/kg; LD50 at 336 h ([2]; male Swiss mice, read-out: Parenteral LD50, male mice): 105 ± 24 mg/kg; IC50 (15 HETE): 40 µM; concentration at which inflammation is inhibited by a factor of 50% (edema of the ear in rats; at least seven rats): 16 mg/mL; concentration at which inflammation is inhibited by a factor of 50% (edema of the ear in rats; molar value in parentheses): 57 µmol/mL; inhibition of the metabolism of the 5-lipoxygenase route (chromatographic profile, FIG. 2b) ([1]; 50 μM): inhibition of the metabolism of the 5-lipoxygenase route
CC(=O)Oc1ccccc1C(=O)O [Aspirin]	–	–	–	–	–	–	–	concentration at which inflammation is inhibited by a factor of 50% (edema of the ear in rats; at least seven rats): 70 mg/mL; concentration at which inflammation is inhibited by a factor of 50% (edema of the ear in rats; molar value in parentheses): 233 µmol/mL; inhibition of the 12-lipoxygenase route (chromatographic profile, FIG. 3b) (12-lipoxygenase): does not inhibit the 12-lipoxygenase route
CC(=NNc1nccs1)c1cccs1 [Example 3d]	22	< 2	2	–	–	50	10	IC50 in the PMNs, 15 HETE (15 HETE): n.i.
CCOC(=O)CCCC(C)=NNc1nccs1 [Example 1a]	–	–	13	–	–	50	12	IC50 in the blood platelets, 12 HETE (12-lipoxygenase): n.i.
CC(=NNc1nccs1)c1ccco1 [Example 3c]	14	10	2	> 50	10	–	–	IC50 (15 HETE; Oryctolagus cuniculus): > 50 µM
O=C(O)c1cc(=NNc2nccs2)c2ccccc2o1 [Example 20]	–	–	–	20	15	–	–	IC50 in the blood platelets, 12 HETE (12-lipoxygenase): n.i.; IC50 in the PMNs, 5 HETE ([1]; 5 HETE formation): n.i.; IC50 in the PMNs, LTB4 ([1]; LTB4 formation): n.i.
c1ccc2c(c1)CCCC2=NNc1nccs1 [Example 7a]	–	5	–	–	–	15	5	IC50 (15 HETE): 2 µM; IC50 in the blood platelets, 12 HETE (12-lipoxygenase): n.i.
CC(=NNc1nccs1)c1cccs1 [Example 3a]	30	15	–	–	–	21	13	IC50 (15 HETE; Oryctolagus cuniculus): 40 µM
NC(=NNc1ccccc1)c1ccccc1 [Example 21]	–	20	10	10	10	–	–	IC50 in the blood platelets, 12 HETE (12-lipoxygenase): n.i.
COc1ccc2c(c1)c(CC(=O)O)c(C)n2C(=O)c1ccc(Cl)cc1 [Indomethacin]	–	–	–	–	–	–	–	leukocytic infiltration in the aqueous humor [3]: increases leukocytic infiltration in the aqueous humor; concentration at which inflammation is inhibited by a factor of 50% (edema of the ear in rats; at least seven rats): no inhibition
CN1CCN(C(=NNc2ccccc2)c2ccccc2)CC1 [Example 23]	25	25	25	25	25	–	–	–
CC(=NNc1nccs1)c1cccs1 [Example 3]	3	18	7	–	–	20	50	IC50 in the PMNs, 15 HETE (15 HETE): n.i.
C[C@H](Cc1ccc(O)c(O)c1)[C@@H](C)Cc1ccc(O)c(O)c1 [NDGA, Nordihydroguaiaretic acid]	–	–	–	–	–	–	–	concentration at which inflammation is inhibited by a factor of 50% (edema of the ear in rats; at least seven rats): 12.5 mg/mL; concentration at which inflammation is inhibited by a factor of 50% (edema of the ear in rats; molar value in parentheses): 41 µmol/mL
CC(=NNc1nccs1)c1ccccc1N [Example 15]	–	< 25	< 25	25	< 25	–	–	IC50 in the blood platelets, 12 HETE (12-lipoxygenase): n.i.
C[C@@H]1C[C@H]2[C@@H]3CCC4=CC(=O)C=C[C@]4(C)[C@@]3(F)[C@@H](O)C[C@]2(C)[C@@]1(O)C(=O)CO [Dexamethasone]	–	–	–	–	–	–	–	concentration at which inflammation is inhibited by a factor of 50% (edema of the ear in rats; at least seven rats): 1 mg/mL; concentration at which inflammation is inhibited by a factor of 50% (edema of the ear in rats; molar value in parentheses): 2.5 µmol/mL
CC(Cn1ccnc1)=NNc1nccs1 [Example 4]	> 50	–	–	> 50	> 50	–	–	IC50 (15 HETE; Oryctolagus cuniculus): 2 µM; IC50 in the PMNs, 5 HETE ([1]; 5 HETE formation): n.i.; IC50 in the PMNs, LTB4 ([1]; LTB4 formation): n.i.
CCOC(=O)CCCC(C)=NNc1nccs1 [Example 1]	> 50	< 2	< 2	> 50	–	–	> 50	IC50 (15 HETE; Oryctolagus cuniculus): > 50 µM
